Test results published in patent publication US11680078B2, “Anticancer compounds” (GODAVARI BIOREFINERIES LIMITED, priority 2017, dated 2023).
Where two headings read alike, the source gives them in different places.

Tests used:
MDAMB231 [1] = test: Soft Agar colony-formation Assay, MDAMB231; assay type: cell-based; conditions: Homo sapiens, MDA-MB-231, 168 h; MDAMB231 breast cell line, 1 week
Procedure: (§1) The Soft Agar Colony-formation Assay is an anchorage-independent growth assay in soft agar, which is one of the most stringent assays for detecting malignant transformation of cells. For this assay, malignant cells are cultured with appropriate controls in soft agar medium for 1-2 weeks. Following this incubation period, formed colonies can either be analyzed morphologically using cell stain and quantifying the number of colonies formed.
(§2) Briefly, for Soft Agar Assay a mixture of 50 ul of 2× medium (taken appropriately as per cell line) and 50 ul of 1.2% Bacto Agar were plated on to each well of 96 well micro titer assay plate. 10 ul of cells (Of specific plating efficiency pre-standardized for respective cell line) were mixed with 20 ul of 2× medium and 30 ul of 0.8% of Bacto Agar and 1.6 ul of drug (of appropriate concentration) in a vial and transferred to the solidified pre-layers of the assay plates. The cells were then allowed to grow and form colonies at 37° C. and 5% CO2 for 1 week. An intermittent feeding with 50 ul of appropriate 2× medium was performed after 3 days of experimental set up. 16 ul of Alamar Blue (1.5 mg/ml) was then added to all the wells to quantify the developed colonies. The plates were incubated for 24 hrs at 37° C. Absorbance was then measured at 630 nm. XY graph of log Percent viability was then plotted against log drug concentration. IC50 (Drug concentration inhibiting the 50% of cell population) was then calculated by regression analysis.
(§3) Following Plating Efficiencies Were Standardized for Soft Agar Assay: […]

MDAMB231 [2] = test: MTT antiproliferative assay, MDAMB231; assay type: cell-based; conditions: Homo sapiens, MDA-MB-231; MDAMB231 breast cell line, 48 hrs drug incubation
Procedure: (§4) MTT assay is a simple and sensitive assay where, metabolic reducing activity of the cells is measured. The increase of this activity in time is taken as a parameter of cell growth. If treatment with a drug impairs this increase, the action may be a consequence of growth inhibition, cell killing or both. The compounds of Formula V to XIV of the present invention, standard cytotoxic drug (e.g. Cisplatin) were tested at different concentrations (1, 0.1, 0.01, 0.001 mM) using breast and prostate cancer cell lines. All cell lines were cultured in a 37° C. incubator with a 5% CO2 environment. Compounds were dissolved in DMSO with a concentration of 0.1M (stock solution). Cells were seeded into 96-well plates at suitable plating efficiency.
(§5) Following Plating Efficiencies were Standardized for MTT Assay:
(§6) The MTT procedure followed was as follows. Briefly, the cells were plated in 96 well plate as per predetermined plating efficiency (Table 1) The plates were then incubated for 24 hrs in 5% CO2 atmosphere at 37° C. Appropriate concentrations of the drugs were then added to the plate and further incubation was carried out for 48 hrs (in 5% CO2 atmosphere at 37° C.). The assay plate was then centrifuged twice at 3000 rpm for 3 mins and supernatant was then discarded. 100 ul of MTT solution (0.5 mg/ml) was then added to each well of the plate and it was further incubated for 4 hrs (in 5% CO2 atmosphere at 37° C.) Following 4 hr incubation, the plate was then centrifuged twice, and supernatant was aspirated off very carefully. 200 ul of DMSO was then added to each well to solubilize. MTT crystals and mixed well by shaking the plate. XY graph of log Percent viability was then plotted against log drug concentration. […] (Drug concentration inhibiting the 50% of cell population) was then calculated by regression analysis.

DU145 = test: MTT antiproliferative assay, DU145; assay type: cell-based; conditions: Homo sapiens, DU-145; DU145 prostate cell line, 48 hrs drug incubation
Procedure: as §4, §5, §6

PC3 [3] = test: MTT antiproliferative assay, PC3; assay type: cell-based; conditions: Homo sapiens, PC-3; PC3 prostate cell line, 48 hrs drug incubation
Procedure: as §4, §5, §6

spheres of PC3 = test: In vitro sphere-forming assay, PC3 in Prostosphere media; assay type: cell-based; conditions: 2000 cells/well, n = 6 ± S.D
Text: (§7) Sphere assay measures the ability of Cancer Stein Cells to form spheres in specially designed serum-free medium. We have used this assay to measure the killing efficiency of the test compounds as compared to the standard chemotherapeutic drug, Cisplatin.
(§8) Materials and Reagents:50× B27 Supplement (Life Technologies, Invitrogen, Catalog No.: 17502-044), Fibroblast Growth Factor (FGF) (Sigma-Aldrich, Catlog No.: F029125), Epidermal Growth Factor (EGF) (Sigma-Aldrich, Catlog No.: E9644), Insulin (Sigma, Catlog No.: 19278), Dulbecco's Modified Eagle Medium/F12 (HiMedia Catlog No.: AL139-6), Dulbecco's Phosphate Buffered Saline (HiMedia Catlog No.: TL1006), Trypan Blue (TC193), Prostate Epithelial Media (LONZA, Catlog No.: CC-3166) MEGM (LONZA, Catlog No.: CC-3051), Heparin (Sigma, Catlog No.: H3393), Penstrep (HiMedia, Catlog No.: A002)
Prostosphere Media Preparation (For 100 mL):1 g methyl cellulose autoclaved with magnetic stirrer, Plain media (Prostate Epithelial Basal Medium), 100 mL added and dissolved, under magnetic stirring. After complete dissolution, add: Insulin-40 μL, B27-2 mL, EGF-80 μL, Penstrep-1 ml.
(§9) Procedure: —The cells were trypsinised and made into single-cell suspension by passing through cell strainers ([…], respectively), The cells were diluted at the concentration of 2000 cells/100 μL and suspended in either Mammosphere (for breast cell lines) or Prostosphere (for prostate cell lines). 100 μL of this suspension was added into each well of 96-well suspension plates and incubated at 37° C., 5% CO2 for 24 hrs. Appropriate concentrations of the drugs (2 μL) were added into respective wells with 100 μL of stem cell culture medium. Plates were incubated at 37° C., 5% CO2 for 72 hrs. After incubation 2.5 μL of the respective drug concentration and 50 μL of stem cell culture medium were added into each well and the plates were further incubated at 37° C., 5% CO2 for 72 hrs. 3 μL of the respective drug concentration was added with 50 μL of stem cell culture medium again after incubation and plates were incubated again for 72 hrs at 37° C., 5% CO2. Number of primary spheres formed for each concentration was counted. A comparative graph of number of spheres formed was plotted against the concentration and the growth curve was compared with the positive control.

PC3 [4] = test: Soft Agar colony-formation Assay, PC3; assay type: cell-based; conditions: Homo sapiens, PC-3, 168 h; PC3 prostate cell line, 1 week
Procedure: as §1, §2, §3

normal lymphocytes [5] = test: Normal cell assay (MTT) on lymphocytes from a healthy donor
Procedure: (§10) In order to test the activity of cytotoxic drugs towards normal cells, we performed MTT
(§11) Assay for these cytotoxic drugs using lymphocytes obtained from a healthy donor.
(§12) Briefly, diluted defibrinated fresh blood was overlaid gradually on HiSeP LSM1077 and centrifuged at low speed for 30 mins. The lymphocyte layer (the buffy coat) (Fig) was carefully removed in a new collection tube. The buffy coat was given another wash, by the diluent buffer, to reduce the platelet contamination. The supernatant was discarded, and the pellet was resuspended in diluent buffer. The viability was checked by Haemocytometer. Cells with Viability and Purity of 95% and more were considered for the assay. MTT assay was performed with these cells as described above with plating efficiency of 0.7 million/ml.

spheres of MDAMB231 = test: In vitro sphere-forming assay, MDAMB231 in Mammosphere media; assay type: cell-based; conditions: 2000 cells/well, n = 6 ± S.D
Text: as §7, §8
Mammosphere Media Preparation (For 100 mL): 1 g methyl cellulose autoclaved with magnetic stirrer Plain media (MEBM), 100 mL added and dissolved under magnetic stirring. After complete dissolution, add: FGF-80 μL, EGF-40 μL, Penstrep-1 mL, Heparin-400 μL.
as §9

MCF7 = test: MTT antiproliferative assay, MCF7; assay type: cell-based; conditions: Homo sapiens, MCF7; MCF-7 breast cell line, 48 hrs drug incubation
Procedure: as §4, §5, §6

normal lymphocytes [6] = test system: normal lymphocytes
Procedure: as §10, §11, §12

IC50 (MDAMB231 [1]) [µM]	IC50 (MDAMB231 [2]) [µM]	IC50 (DU145) [µM]	IC50 (PC3 [3]) [µM]	IC50 (PC3 [4]) [µM]	activity on normal lymphocytes (normal lymphocytes [5])	IC50 (MCF7) [µM]	activity on normal lymphocytes (normal lymphocytes [6])	Structure (SMILES)	3D sphere count of PC3 (spheres of PC3; drug conc 0.025 uM)	3D sphere count of PC3 (spheres of PC3; drug conc 0.25 uM)	3D sphere count of PC3 (spheres of PC3; drug conc 2.5 uM)	3D sphere count of PC3 (spheres of PC3; drug conc 25 uM)	3D sphere count of PC3 (spheres of PC3; drug conc 250 uM)	3D sphere count of MDAMB231 (spheres of MDAMB231; drug conc 0.025 uM)	3D sphere count of MDAMB231 (spheres of MDAMB231; drug conc 0.25 uM)	3D sphere count of MDAMB231 (spheres of MDAMB231; drug conc 2.5 uM)	3D sphere count of MDAMB231 (spheres of MDAMB231; drug conc 25 uM)	3D sphere count of MDAMB231 (spheres of MDAMB231; drug conc 250 uM)
1.32	3.14	4.28	3.91	1.96	does not show activity	1.05		COc1cc2c(OC(=O)C(c3ccccc3)C3CCCC3)c3c(c(-c4ccc5c(c4)OCO5)c2cc1OC)C(=O)OC3 (stereo not shown) [Formula VIII, 9-(benzo[d][1,3]dioxol-5-yl)-6,7-dimethoxy-1-oxo-1,3-dihydronaphtho[2,3-c]furan-4-yl 2-cyclopentyl-2-phenylacetate]	29(±3)	24(±3)	13(±3)	8(±2)	0(±0)	36(±3)	29(±4)	13(±2)	8(±2)	0(±0)
3.45	4.61		6.19	10.6			does not show activity	CO[C@H]1[C@H](OC)COC(Oc2ccc(-c3ccc4c(c3)OCO4)c3ccccc23)[C@@H]1O (stereo partly drawn) [Formula V, (3R,4R,5R)-2-(4-(benzo[d][1,3]dioxol-5-yl)naphthalen-1-yloxy)-4,5-dimethoxy-tetrahydro-2H-pyran-3-ol]	50(±5)	40(±5)	36(±3)	21(±4)	0(±0)	40(±3)	24(±3)	12(±1)	7(±2)	0(±0)
7.91	2.04	3.57	6.32	0.36	does not show activity	2.78		COc1cc2c(OC(=O)c3cccn3C)c3c(c(-c4ccc5c(c4)OCO5)c2cc1OC)C(=O)OC3 [Formula VII, 9-(benzo[d][1,3]dioxol-5-yl)-6,7-dimethoxy-1-oxo-1,3-dihydronaphtho[2,3-c]furan-4-yl 1-methyl-1H-pyrrole-2-carboxylate]	64(±8)	31(±5)	23(±3)	9(±2)	0(±0)	47(±4)	46(±7)	40(±7)	40(±3)	0(±0)
